Target: T1, Kv1.3 potassium channel (Homo sapiens, UniProt P22001)
T1 construct: expressed in transfected cells
Assay: Kv1.3 potassium channel blocker activity, automated whole-cell patch clamp (Patchliner)
Type: cell-based
Conditions: CHO-K1 cells stably expressing Kv1.3; whole cell current inhibition; read-out: Kv1.3_IC50
Protocol: The assay described below is used to evaluate the disclosed compound's activities as Kv1.3 potassium channel blockers.
CHO-K1 cells stably expressing Kv1.3 were grown in DMEM containing 10% heat-inactivated FBS, 1 mM Sodium Pyruvate, 2 mM L-Glutamine and G418 (500 μg/ml).
All compounds were dissolved in DMSO at 30 mM.
The currents were evoked by applying 100 ms depolarizing pulses from −90 mV (holding potential) to +40 mV were applied with 0.1 Hz frequency. […] 10 second breaks were used between pulse trains (see Table A below).
Data were sampled at 10 kHz without filtering. Passive leak currents were subtracted online using a P/4 procedure (HEKA Elektronik Dr. Schulze GmbH). […] Total compound incubation time before the next pulse train was not longer than 10 seconds. Peak current inhibition was observed during compound equilibration.

T1 sequence (P22001 whole entry): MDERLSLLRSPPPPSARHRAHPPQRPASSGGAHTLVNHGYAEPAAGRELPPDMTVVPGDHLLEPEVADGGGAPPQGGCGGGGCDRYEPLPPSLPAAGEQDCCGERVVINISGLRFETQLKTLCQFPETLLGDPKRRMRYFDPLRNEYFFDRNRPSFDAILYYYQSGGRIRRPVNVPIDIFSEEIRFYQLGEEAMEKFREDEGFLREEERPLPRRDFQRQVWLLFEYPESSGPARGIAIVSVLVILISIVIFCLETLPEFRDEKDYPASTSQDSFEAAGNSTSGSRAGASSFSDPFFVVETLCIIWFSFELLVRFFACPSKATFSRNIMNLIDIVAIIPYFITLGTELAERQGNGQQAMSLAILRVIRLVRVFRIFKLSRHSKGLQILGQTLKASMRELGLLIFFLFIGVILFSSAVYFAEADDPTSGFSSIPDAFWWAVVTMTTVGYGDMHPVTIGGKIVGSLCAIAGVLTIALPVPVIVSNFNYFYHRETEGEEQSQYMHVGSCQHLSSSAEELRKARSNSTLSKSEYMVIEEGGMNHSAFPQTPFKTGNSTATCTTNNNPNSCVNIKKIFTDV

IC50 [µM] | SMILES
< 10 | N[C@H](c1cc(Cl)c(Cl)cc1O)C1CCNCC1 (single isomer, unassigned) [Compound 15, Trifluoroacetic Acid]
< 30 | CC(=O)N[C@@H](c1cc(Cl)c(Cl)cc1O)C1CCNCC1 (single isomer, unassigned) [Compound 17]
< 10 | CN1CCC([C@@H](O)c2cc(Cl)c(Cl)cc2O)CC1 (single isomer, unassigned) [Compound 24]
< 10 | N[C@H](c1cc(Cl)c(Cl)cc1O)C1CCN(C(=O)[C@@H]2CCNC2)CC1 (single isomer, unassigned) [Compound 84]
< 10 | C[C@@H](N)C(=O)N1CCC([C@H](N)c2cc(Cl)c(Cl)cc2O)CC1 (single isomer, unassigned) [Compound 87]
< 10 | CN1CCC([C@H](O)c2cc(Cl)c(Cl)cc2O)CC1 (single isomer, unassigned) [Compound 319]
< 10 | O=C([C@@H]1CCNC1)N1CCC([C@H](O)c2c(O)ccc(Cl)c2Cl)CC1 (single isomer, unassigned) [Compound 321, Trifluoroacetic Acid]
< 10 | CN[C@H](c1cc(Cl)c(Cl)cc1O)C1CCN(C(=O)[C@H](O)CO)CC1 (single isomer, unassigned) [Compound 336]
< 10 | N[C@@H](c1cc(Cl)c(Cl)cc1O)[C@H]1CCC(=O)NC1 (single isomer, unassigned; diastereoisomer 1) [Compound 38, 5-(amino(4,5-dichloro-2-hydroxyphenyl)methyl)piperidin-2-one trifluoroacetic acid diastereoisomer 1]
< 30 | CC1(C)C[C@@H]([C@H](N)c2cc(Cl)c(Cl)cc2O)CCN1 (single isomer, unassigned; diastereoisomer 1) [Compound 72, 2-(amino(2,2-dimethylpiperidin-4-yl)methyl)-4,5-dichlorophenol Trifluoroacetic Acid Diastereoisomer 1]
< 10 | CC1(C)C[C@H]([C@H](N)c2cc(Cl)c(Cl)cc2O)CCN1 (single isomer, unassigned; diastereoisomer 2) [Compound 73, 2-(amino(2,2-dimethylpiperidin-4-yl)methyl)-4,5-dichlorophenol Trifluoroacetic Acid Diastereoisomer 2]
< 10 | C[C@@](O)(c1cc(Cl)c(Cl)cc1O)C1CCNCC1 (single isomer, unassigned; isomer 1) [Compound 25, 4,5-dichloro-2-(1-hydroxy-1-(piperidin-4-yl)ethyl)phenol isomer 1]
< 0.5 | O=S(=O)([C@H]1CCNC1)N1CCC([C@@H](O)c2cc(Cl)c(Cl)cc2O)CC1 (single isomer, unassigned; isomer 1) [Compound 124, 4,5-dichloro-2-(hydroxy(1-(pyrrolidin-3-ylsulfonyl)piperidin-4-yl)methyl)phenol Isomer 1]
< 0.5 | CN1C[C@H](C(=O)N2CCC([C@@H](N)c3cc(Cl)c(Cl)cc3O)CC2)OCC1=O (single isomer, unassigned; isomer 1) [Compound 274]
< 10 | N[C@H](c1cc(Cl)c(Cl)cc1O)[C@H]1CCN(C(=O)[C@H](O)CO)C1 (single isomer, unassigned; isomer 1) [Compound 308]
< 10 | O=C([C@H]1CCNC1)N1CCC[C@@H]([C@H](O)c2c(O)ccc(Cl)c2Cl)CC1 (single isomer, unassigned; isomer 1) [Compound 322]
< 10 | N[C@@H](c1cc(Cl)c(Cl)cc1O)[C@@H]1CCCN(C(=O)[C@H](O)CO)CC1 (single isomer, unassigned; isomer 1) [Compound 333]
< 10 | C[C@](O)(c1cc(Cl)c(Cl)cc1O)C1CCNCC1 (single isomer, unassigned; isomer 2) [Compound 26, 4,5-dichloro-2-(1-hydroxy-1-(piperidin-4-yl)ethyl)phenol Isomer 2]
< 10 | O=S(=O)([C@@H]1CCNC1)N1CCC([C@H](O)c2cc(Cl)c(Cl)cc2O)CC1 (single isomer, unassigned; isomer 2) [Compound 125, 4,5-dichloro-2-(hydroxy(1-(pyrrolidin-3-ylsulfonyl)piperidin-4-yl)methyl)phenol Isomer 2]
< 10 | O=C([C@H]1CCNC1)N1CCC[C@H]([C@H](O)c2c(O)ccc(Cl)c2Cl)CC1 (single isomer, unassigned; isomer 2) [Compound 129]
< 10 | CN1C[C@@H](C(=O)N2CCC([C@@H](N)c3cc(Cl)c(Cl)cc3O)CC2)OCC1=O (single isomer, unassigned; isomer 2) [Compound 278]
< 10 | N[C@@H](c1cc(Cl)c(Cl)cc1O)[C@H]1CCN(C(=O)[C@H](O)CO)C1 (single isomer, unassigned; isomer 2) [Compound 312]

IC50 [µM] | SMILES
< 10 | N[C@@H](c1cc(Cl)c(Cl)cc1O)[C@H]1CCCN(C(=O)[C@H](O)CO)CC1 (single isomer, unassigned; isomer 2) [Compound 334]
< 10 | O=C([C@H]1CCNC1)N1CCC[C@@H]([C@@H](O)c2c(O)ccc(Cl)c2Cl)CC1 (single isomer, unassigned; isomer 3) [Compound 323]
< 0.5 | O=S(=O)([C@@H]1CCNC1)N1CCC([C@@H](O)c2cc(Cl)c(Cl)cc2O)CC1 (single isomer, unassigned; isomer 4) [Compound 127, 4,5-dichloro-2-(hydroxy(1-(pyrrolidin-3-ylsulfonyl)piperidin-4-yl)methyl)phenol Isomer 4]
< 10 | O=C([C@H]1CCNC1)N1CCC[C@H]([C@@H](O)c2c(O)ccc(Cl)c2Cl)CC1 (single isomer, unassigned; isomer 4) [Compound 130]
< 10 | CC(O)(c1cc(Cl)c(Cl)cc1O)C1CCNCC1 (stereo not shown) [Compound 3, 4,5-dichloro-2-[1-hydroxy-1-(piperidin-4-yl)ethyl]phenol]
< 10 | OCC(c1cc(Cl)c(Cl)cc1O)C1CCNCC1 (stereo not shown) [Compound 5, 4,5-dichloro-2-[2-hydroxy-1-(piperidin-4-yl)ethyl]phenol]
< 10 | NCC(c1cc(Cl)c(Cl)cc1O)C1CCNCC1 (stereo not shown) [Compound 8, 2-[2-amino-1-(piperidin-4-yl)ethyl]-4,5-dichlorophenol]
< 10 | CS(=O)(=O)NC(c1cc(Cl)c(Cl)cc1O)C1CCNCC1 (stereo not shown) [Compound 12, N-((4,5-dichloro-2-hydroxyphenyl)(piperidin-4-yl)methyl)methanesulfonamide]
< 10 | Oc1cc(Cl)c(Cl)cc1C(C1CCNCC1)n1cccn1 (stereo not shown) [Compound 13, 4,5-dichloro-2-[piperidin-4-yl(1H-pyrazol-1-yl)methyl]phenol]
< 10 | CN1CCC(C(NC(=O)C(F)(F)F)c2cc(Cl)c(Cl)cc2O)CC1 (stereo not shown) [Compound 14, N-[(4,5-dichloro-2-hydroxyphenyl)(1-methylpiperidin-4-yl)methyl]-2,2,2-trifluoroacetamide]
< 10 | NC(=O)C(c1cc(Cl)c(Cl)cc1O)C1CCNCC1 (stereo not shown) [Compound 18, 2-(4,5-dichloro-2-hydroxyphenyl)-2-(piperidin-4-yl)acetamide]
< 10 | O=C(NC(c1cc(Cl)c(Cl)cc1O)C1CCNCC1)C(F)(F)F (stereo not shown) [Compound 22, N-((4,5-dichloro-2-hydroxyphenyl)(piperidin-4-yl)methyl)-2,2,2-trifluoroacetamide]
< 10 | CC(=O)N1CCC(C(c2cc(Cl)c(Cl)cc2O)N2CCCC2)CC1 (stereo not shown) [Compound 23, 1-(4-((4,5-dichloro-2-hydroxyphenyl)(pyrrolidin-1-yl)methyl)piperidin-1-yl)ethanone Trifluoroacetic Acid]
< 30 | CC(=O)N1CCC(C(Nc2ccccn2)c2cc(Cl)c(Cl)cc2O)CC1 (stereo not shown) [Compound 27, 1-[4-[(4,5-dichloro-2-hydroxyphenyl)[(pyridin-2-yl)amino]methyl]piperidin-1-yl]ethan-1-one Trifluoroacetic Acid]
< 30 | CC(=O)N1CCC(C(CN)c2cc(Cl)c(Cl)cc2O)CC1 (stereo not shown) [Compound 28, 1-[4-[2-amino-1-(4,5-dichloro-2-hydroxyphenyl)ethyl]piperidin-1-yl]ethan-1-one]
< 10 | O=C1CCCN1C(c1cc(Cl)c(Cl)cc1O)C1CCNCC1 (stereo not shown) [Compound 29, 1-((4,5-dichloro-2-hydroxyphenyl)(piperidin-4-yl)methyl)pyrrolidin-2-one Trifluoroacetic Acid]
< 10 | Cc1ccc(S(=O)(=O)N2CCC(C(N)c3cc(Cl)c(Cl)cc3O)CC2)cc1 (stereo not shown) [Compound 35, 2-(amino(1-tosylpiperidin-4-yl)methyl)-4,5-dichlorophenol]
< 30 | CC(N)(c1cc(Cl)c(Cl)cc1O)C1CCNCC1 (stereo not shown) [Compound 40, 2-[1-amino-1-(piperidin-4-yl)ethyl]-4,5-dichlorophenol]
< 10 | NC(c1cc(Cl)c(Cl)cc1O)C1CCN(Cc2ccccc2)CC1 (stereo not shown) [Compound 41, 2-(amino(1-benzylpiperidin-4-yl)methyl)-4,5-dichlorophenol Trifluoroacetic Acid]
< 10 | CN(C)C(=O)CN1CCC(C(N)c2cc(Cl)c(Cl)cc2O)CC1 (stereo not shown) [Compound 55, 2-[4-[amino(4,5-dichloro-2-hydroxyphenyl)methyl]piperidin-1-yl]-N,N-dimethylacetamide]
< 10 | NC(c1cc(Cl)c(Cl)cc1O)C1CCN(C(=O)NC2CC2)CC1 (stereo not shown) [Compound 57, 4-(amino(4,5-dichloro-2-hydroxyphenyl)methyl)-N-cyclopropylpiperidine-1-carboxamide]

From patent US20230023559A1, “ARYLMETHYLENE HETEROCYCLIC COMPOUNDS AS KV1.3 POTASSIUM SHAKER CHANNEL BLOCKERS” (D. E. Shaw Research, LLC, priority 2019, published 2023)
